From the supplement of paper PMC10307832 come the findings set out here.

Structures are written as SMILES.

One experiment relates to LOU-NH91. As to the kind of experiment: relative viability (nuclei count vs DMSO), 5 days (fraction); higher = more cells survive. Conditions: first compound 2 µM. The method in brief: (§1)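 Dosing by pin tool came one day after lung cancer cell lines were seeded in 1536-well plates, using either one drug or a fixed anchor-drug dose plus five library-drug doses (not always all listed) in √10 steps. After 5 days, nuclei were counted on 4× images. Relative viability is treated-well nuclei count divided by vehicle-well nuclei count, and values are medians of duplicate plates.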
The molecule `COCC1(CO)C(=O)C2CCN1CC2` (stereo not drawn) [PRIMA-1MET] + Nc1nc2[nH]cc(CCc3ccc(C(=O)N[C@@H](CCC(=O)O)C(=O)O)cc3)c2c(=O)[nH]1 [Pemetrexed] (partner 0.2 µM) registered a relative viability of 0.405.

On to `COCC1(CO)C(=O)C2CCN1CC2` (stereo not drawn) [PRIMA-1MET] + CC(=O)Nc1cccc(-n2c(=O)n(C3CC3)c(=O)c3c(Nc4ccc(I)cc4F)n(C)c(=O)c(C)c32)c1 [Trametinib] (partner 0.02 µM), for which the relative viability was found to be 0.793.

`COCC1(CO)C(=O)C2CCN1CC2` (stereo not drawn) [PRIMA-1MET] + Nc1ncn([C@H]2C[C@H](O)[C@@H](CO)O2)c(=O)n1 [Decitabine] (partner 2 µM) had a relative viability of 0.806.

Molecule `COCC1(CO)C(=O)C2CCN1CC2` (stereo not drawn) [PRIMA-1MET] + O=C(c1cc(Cc2n[nH]c(=O)c3ccccc23)ccc1F)N1CCN(C(=O)C2CC2)CC1 [Olaparib] (partner 8 µM) displayed a relative viability of 0.866.

The experiment is the same for the next values; noted with them: first compound 6.325 µM.
In turn, `COCC1(CO)C(=O)C2CCN1CC2` (stereo not drawn) [PRIMA-1MET] + N=C(N)NC(=N)NCCc1ccccc1 [Phenformin] (partner 250 µM) came in with a relative viability of 0.712.

In turn, `COCC1(CO)C(=O)C2CCN1CC2` (stereo not drawn) [PRIMA-1MET] + Nc1nc2[nH]cc(CCc3ccc(C(=O)N[C@@H](CCC(=O)O)C(=O)O)cc3)c2c(=O)[nH]1 [Pemetrexed] (partner 0.2 µM) displayed a relative viability of 0.4.

For the molecule `COCC1(CO)C(=O)C2CCN1CC2` (stereo not drawn) [PRIMA-1MET] + CC(=O)Nc1cccc(-n2c(=O)n(C3CC3)c(=O)c3c(Nc4ccc(I)cc4F)n(C)c(=O)c(C)c32)c1 [Trametinib] (partner 0.02 µM), the relative viability came to 0.831.

For the molecule `COCC1(CO)C(=O)C2CCN1CC2` (stereo not drawn) [PRIMA-1MET] + Nc1ncn([C@H]2C[C@H](O)[C@@H](CO)O2)c(=O)n1 [Decitabine] (partner 2 µM), the relative viability was 0.828.

The molecule `COCC1(CO)C(=O)C2CCN1CC2` (stereo not drawn) [PRIMA-1MET] + O=C(c1cc(Cc2n[nH]c(=O)c3ccccc23)ccc1F)N1CCN(C(=O)C2CC2)CC1 [Olaparib] (partner 8 µM) had a relative viability of 0.978.

Still in this experiment, the particulars now being: first compound 20 µM.
Regarding `COCC1(CO)C(=O)C2CCN1CC2` (stereo not drawn) [PRIMA-1MET] + N=C(N)NC(=N)NCCc1ccccc1 [Phenformin] (partner 250 µM), the relative viability amounted to 0.392.

`COCC1(CO)C(=O)C2CCN1CC2` (stereo not drawn) [PRIMA-1MET] + Nc1nc2[nH]cc(CCc3ccc(C(=O)N[C@@H](CCC(=O)O)C(=O)O)cc3)c2c(=O)[nH]1 [Pemetrexed] (partner 0.2 µM) returned a relative viability of 0.344.

In the case of `COCC1(CO)C(=O)C2CCN1CC2` (stereo not drawn) [PRIMA-1MET] + CC(=O)Nc1cccc(-n2c(=O)n(C3CC3)c(=O)c3c(Nc4ccc(I)cc4F)n(C)c(=O)c(C)c32)c1 [Trametinib] (partner 0.02 µM), the relative viability came to 0.535.

Take `COCC1(CO)C(=O)C2CCN1CC2` (stereo not drawn) [PRIMA-1MET] + Nc1ncn([C@H]2C[C@H](O)[C@@H](CO)O2)c(=O)n1 [Decitabine] (partner 2 µM): the relative viability was found to be 0.613.

As for `COCC1(CO)C(=O)C2CCN1CC2` (stereo not drawn) [PRIMA-1MET] + O=C(c1cc(Cc2n[nH]c(=O)c3ccccc23)ccc1F)N1CCN(C(=O)C2CC2)CC1 [Olaparib] (partner 8 µM), the relative viability is 0.65.

The subject of the next experiment is COR-L 105. Described as above. The settings on record: first compound 0.2 µM. The method, boiled down: as §1
The molecule `COCC1(CO)C(=O)C2CCN1CC2` (stereo not drawn) [PRIMA-1MET] + N=C(N)NC(=N)NCCc1ccccc1 [Phenformin] (partner 250 µM) showed a relative viability of 0.547.

On to `COCC1(CO)C(=O)C2CCN1CC2` (stereo not drawn) [PRIMA-1MET] + Nc1nc2[nH]cc(CCc3ccc(C(=O)N[C@@H](CCC(=O)O)C(=O)O)cc3)c2c(=O)[nH]1 [Pemetrexed] (partner 0.2 µM), for which the relative viability turned out to be 1.3.

In turn, `COCC1(CO)C(=O)C2CCN1CC2` (stereo not drawn) [PRIMA-1MET] + CC(=O)Nc1cccc(-n2c(=O)n(C3CC3)c(=O)c3c(Nc4ccc(I)cc4F)n(C)c(=O)c(C)c32)c1 [Trametinib] (partner 0.02 µM) yielded a relative viability of 0.464.

`COCC1(CO)C(=O)C2CCN1CC2` (stereo not drawn) [PRIMA-1MET] + Nc1ncn([C@H]2C[C@H](O)[C@@H](CO)O2)c(=O)n1 [Decitabine] (partner 2 µM) yielded a relative viability of 0.695.

Molecule `COCC1(CO)C(=O)C2CCN1CC2` (stereo not drawn) [PRIMA-1MET] + O=C(c1cc(Cc2n[nH]c(=O)c3ccccc23)ccc1F)N1CCN(C(=O)C2CC2)CC1 [Olaparib] (partner 8 µM) showed a relative viability of 0.687.

The experiment is the same for the next values; noted with them: first compound 0.6325 µM.
As to `COCC1(CO)C(=O)C2CCN1CC2` (stereo not drawn) [PRIMA-1MET] + N=C(N)NC(=N)NCCc1ccccc1 [Phenformin] (partner 250 µM), the relative viability is 0.438.

In turn, `COCC1(CO)C(=O)C2CCN1CC2` (stereo not drawn) [PRIMA-1MET] + Nc1nc2[nH]cc(CCc3ccc(C(=O)N[C@@H](CCC(=O)O)C(=O)O)cc3)c2c(=O)[nH]1 [Pemetrexed] (partner 0.2 µM) displayed a relative viability of 1.17.

Molecule `COCC1(CO)C(=O)C2CCN1CC2` (stereo not drawn) [PRIMA-1MET] + CC(=O)Nc1cccc(-n2c(=O)n(C3CC3)c(=O)c3c(Nc4ccc(I)cc4F)n(C)c(=O)c(C)c32)c1 [Trametinib] (partner 0.02 µM) showed a relative viability of 0.421.

`COCC1(CO)C(=O)C2CCN1CC2` (stereo not drawn) [PRIMA-1MET] + Nc1ncn([C@H]2C[C@H](O)[C@@H](CO)O2)c(=O)n1 [Decitabine] (partner 2 µM): the relative viability was 0.619.

Regarding `COCC1(CO)C(=O)C2CCN1CC2` (stereo not drawn) [PRIMA-1MET] + O=C(c1cc(Cc2n[nH]c(=O)c3ccccc23)ccc1F)N1CCN(C(=O)C2CC2)CC1 [Olaparib] (partner 8 µM), the relative viability was determined as 0.685.

Still in this experiment, the particulars now being: first compound 2 µM.
`COCC1(CO)C(=O)C2CCN1CC2` (stereo not drawn) [PRIMA-1MET] + N=C(N)NC(=N)NCCc1ccccc1 [Phenformin] (partner 250 µM) registered a relative viability of 0.373.

`COCC1(CO)C(=O)C2CCN1CC2` (stereo not drawn) [PRIMA-1MET] + Nc1nc2[nH]cc(CCc3ccc(C(=O)N[C@@H](CCC(=O)O)C(=O)O)cc3)c2c(=O)[nH]1 [Pemetrexed] (partner 0.2 µM) showed a relative viability of 1.22.

As to `COCC1(CO)C(=O)C2CCN1CC2` (stereo not drawn) [PRIMA-1MET] + CC(=O)Nc1cccc(-n2c(=O)n(C3CC3)c(=O)c3c(Nc4ccc(I)cc4F)n(C)c(=O)c(C)c32)c1 [Trametinib] (partner 0.02 µM), the relative viability came to 0.378.

With `COCC1(CO)C(=O)C2CCN1CC2` (stereo not drawn) [PRIMA-1MET] + Nc1ncn([C@H]2C[C@H](O)[C@@H](CO)O2)c(=O)n1 [Decitabine] (partner 2 µM), the relative viability was 0.551.

As to `COCC1(CO)C(=O)C2CCN1CC2` (stereo not drawn) [PRIMA-1MET] + O=C(c1cc(Cc2n[nH]c(=O)c3ccccc23)ccc1F)N1CCN(C(=O)C2CC2)CC1 [Olaparib] (partner 8 µM), the relative viability was found to be 0.713.

Still in this experiment, the particulars now being: first compound 6.325 µM.
The molecule `COCC1(CO)C(=O)C2CCN1CC2` (stereo not drawn) [PRIMA-1MET] + N=C(N)NC(=N)NCCc1ccccc1 [Phenformin] (partner 250 µM) registered a relative viability of 0.459.

`COCC1(CO)C(=O)C2CCN1CC2` (stereo not drawn) [PRIMA-1MET] + Nc1nc2[nH]cc(CCc3ccc(C(=O)N[C@@H](CCC(=O)O)C(=O)O)cc3)c2c(=O)[nH]1 [Pemetrexed] (partner 0.2 µM) had a relative viability of 1.1.

`COCC1(CO)C(=O)C2CCN1CC2` (stereo not drawn) [PRIMA-1MET] + CC(=O)Nc1cccc(-n2c(=O)n(C3CC3)c(=O)c3c(Nc4ccc(I)cc4F)n(C)c(=O)c(C)c32)c1 [Trametinib] (partner 0.02 µM) returned a relative viability of 0.438.

The molecule `COCC1(CO)C(=O)C2CCN1CC2` (stereo not drawn) [PRIMA-1MET] + Nc1ncn([C@H]2C[C@H](O)[C@@H](CO)O2)c(=O)n1 [Decitabine] (partner 2 µM) returned a relative viability of 0.597.
